Tests used:
Src [1] = biological target: T1, Src (Homo sapiens, UniProt P12931); conditions: both cell lines (JIMT-1, HCC1954), 18 hours of treatment
Src [2] = biological target: T1, Src; experiment: in vitro SRC kinase assay; format: biochemical; conditions: in vitro kinase assays; read-out: IC50 of inhibition of SRC kinase activity
Method: (§1) Inhibition of SRC kinase activity by EXEL-7647 was measured using in vitro kinase assays. […] In addition, the effect of EXEL-7647 on the phosphorylation of the […] protein FAK (focal adhesion kinase) was measured in cell culture (FIG. 1). Specifically, DLD1-PTK2 cells were treated with EXEL-7647 at concentrations of 1.6, 4.7, 14, 41, 123, 370, 1111, 3333 or 10,000 nM for one hour in serum-free DMEM and harvested. The phosphorylation status of the tyrosine at amino acid position 861 of the FAK protein (“FAK-PY861”) in the treated cells was then determined by standard Western blotting using phosphorylation-specific antibodies, as indicated in FIG. 1. The Western blot was quantified using a Typhoon scanned image and ImageQuant software and the IC50 value for EXEL-7647-mediated inhibition of FAK-phosphorylation calculated. […] The kinase inhibitor staurosporine (EXEL 00878128) was used as a positive control. […] The identifier EXEL-02377647:9 in FIG. 1 refers to compound EXEL-7647.

[3] = tested on: FAK (focal adhesion kinase); experiment: FAK (PY861) phosphorylation in DLD1-PTK2 cells, Western blot; format: cell-based; conditions: one hour, serum-free DMEM, read-out: IC50 of inhibition of FAK phosphorylation at tyrosine 861
Method: as §1

BT474 tumor xenografts = experiment: BT474 tumor xenograft growth in athymic nude mice; format: in vivo, human; conditions: oral, three consecutive days
Method: The human breast cancer cell line BT474 expresses high levels of ErbB2 (Her2), a significant fraction of which is constitutively phosphorylated even in the absence of an exogenous ligand. The phosphorylation of ErbB2 is a measure of its activity. Athymic nude mice bearing tumor xenografts derived from the human breast cancer cell line BT474 were treated orally on three consecutive days with 3, 10, 30 or 100 mg/kg of EXEL-7647. The tumors were harvested 1 hr after the final dose was administered and their weights were measured.

ErbB2 (Her2) = ErbB2 (Her2) (Homo sapiens, UniProt P04626); experiment: ErbB2 phosphorylation in BT474 tumor xenografts in mice; format: in vivo
EGFR = EGFR (Homo sapiens, UniProt P00533); experiment: EGF-induced EGFR phosphorylation in A431 tumor xenografts in mice; format: in vivo
KDR = biological target: T2, KDR (Mus musculus, UniProt P35918); experiment: VEGF-induced KDR phosphorylation in mouse lungs; format: in vivo, mice; conditions: mouse lung lysate pools; read-out: IC50 of decrease of VEGF-induced KDR receptor phosphorylation (plasma concentration)
T2 construct: from tissue; host or cells: mouse lung

EphB4 = biological target: T3, EphB4 (Homo sapiens, UniProt P54760); experiment: EphB4 phosphorylation in HCT116/EphB4 xenografts in mice; format: in vivo
T3 construct: expressed in transfected cells; host or cells: HCT116 (human colon carcinoma), grown as xenografts in mice
T3 sequence (P54760 16-987): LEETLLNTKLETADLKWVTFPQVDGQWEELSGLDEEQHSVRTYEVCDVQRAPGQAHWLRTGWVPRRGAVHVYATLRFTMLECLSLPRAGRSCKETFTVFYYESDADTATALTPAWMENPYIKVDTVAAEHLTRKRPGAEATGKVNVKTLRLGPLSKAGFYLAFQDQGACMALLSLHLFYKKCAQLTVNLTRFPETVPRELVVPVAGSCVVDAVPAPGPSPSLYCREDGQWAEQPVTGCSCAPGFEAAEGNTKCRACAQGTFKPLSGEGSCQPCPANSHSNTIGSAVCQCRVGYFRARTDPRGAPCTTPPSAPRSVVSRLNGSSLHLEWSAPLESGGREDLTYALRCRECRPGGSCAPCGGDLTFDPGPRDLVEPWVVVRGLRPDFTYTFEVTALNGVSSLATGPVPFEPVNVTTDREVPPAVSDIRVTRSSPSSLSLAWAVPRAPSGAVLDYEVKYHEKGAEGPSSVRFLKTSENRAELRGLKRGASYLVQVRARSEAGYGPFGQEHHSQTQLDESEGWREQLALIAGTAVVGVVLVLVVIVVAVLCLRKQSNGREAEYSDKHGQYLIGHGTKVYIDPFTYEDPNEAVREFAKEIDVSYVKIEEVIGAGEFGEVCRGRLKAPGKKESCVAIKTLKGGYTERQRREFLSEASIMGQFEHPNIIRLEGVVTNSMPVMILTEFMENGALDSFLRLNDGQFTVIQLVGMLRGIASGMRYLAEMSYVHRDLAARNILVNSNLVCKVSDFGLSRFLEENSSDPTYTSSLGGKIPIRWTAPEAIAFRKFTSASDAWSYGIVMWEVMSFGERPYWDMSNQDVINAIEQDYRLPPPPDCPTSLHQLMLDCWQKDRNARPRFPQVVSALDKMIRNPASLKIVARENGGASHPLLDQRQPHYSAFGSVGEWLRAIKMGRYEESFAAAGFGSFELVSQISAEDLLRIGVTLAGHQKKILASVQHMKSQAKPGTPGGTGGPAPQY
Excerpt: The ability of EXEL-7647 to inhibit the activity of the EphB4 receptor (determined by measuring the receptor's level of phosphorylation) was validated as follows. A cell line expressing high levels of EphB4 was derived by transfecting the human colon carcinoma line HCT116 with a drug selectable marker and an expression vector encoding EphB4. The resulting EphB4 expressing cells (HCT116/EphB4) grow as xenografts in immunocompromised mice. […] Attempts to further stimulate EphB4-phosphorylation by intravenous or intratumoral injection of […] were not successful (data not shown).
Mice bearing HCT116/EphB4 xenografts were dosed orally on three consecutive days with 3, 10, 30 or 100 mg/kg EXEL-7647. Tumors were harvested 1 hr after the final dose and assayed individually or in treatment groups for total and phospho-EphB4 levels by standard Western blotting (FIG. 5, left panel). Tumors from mice treated with vehicle alone served as the negative control. The detection of actin served as a control for protein integrity and concentration.
The plasma concentrations of EXEL-7647 in the mice carrying the analyzed tumors (see above) were determined as well and correlated with the corresponding reductions of phospho-EPHB4 levels (FIG. 5, right panel).

[4] = tested on: human microvascular endothelial cells (HMVECs); experiment: VEGF-induced endothelial tubule formation assay; format: cell-based; conditions: HMVEC; HMVECs on human diploid fibroblasts, CD31 staining; read-out: IC50 of inhibition of VEGF-induced tubule formation
Excerpt: When plated on a confluent layer of normal human diploid fibroblasts, human microvascular endothelial cells (HMVECs) form extensive networks of tubules in response to VEGF over a 7-10 day period.

[5] = tested on: MDA-MB-231 tumor xenografts; experiment: MDA-MB-231 xenografts, 14-day dosing: tumor growth, necrosis, CD31, Ki67; format: in vivo, human; conditions: fourteen days; for CD31 Analysis MVC (mean vessel count) / Ki67 Expression % of Cells / Necrosis % increase: mean (SD)
Method: Anti-angiogenic effects of EXEL-7647 were also studied in vivo. Tumor xenografts derived from the human breast cancer cell line MDA-MB-231 were established in athymic female mice and allowed to reach a total weight of 100 mg. The mice were then treated orally on fourteen consecutive days with doses of 10, 30 or 100 mg/kg of EXEL-7647. The tumors were harvested and their weights were measured after the last dosage had been administered. Tumors derived from mice treated with vehicle alone served as negative controls. […] A statistically significant increase in tumor necrosis was not observed at the lower dose of 10 mg/kg in this model.

[6] = tested on: MDA-MB-231 tumor xenografts; experiment: MDA-MB-231 xenograft growth, up to 28-day dosing; format: in vivo, human
Method: The ability of EXEL-7647 to inhibit the growth of tumors derived from the human breast cancer cell line MDA-MB-231 was validated as follows. Tumor xenografts derived from MDA-MB-231 cells were established in athymic female mice and allowed to reach a total weight of 100 mg. The mice were then treated orally on up to twenty-eight consecutive days with doses of 10, 30 or 100 mg/kg of EXEL-7647. The tumors were harvested on specific days after treatment with XL647 had begun and their weights were measured, as indicated in FIG. 7. Tumors derived from mice treated with vehicle alone served as negative controls.

JIMT-1 cells = experiment: JIMT-1 cell proliferation assay (CellTiter 96 AQueous); format: cell-based; conditions: Homo sapiens, 72 hours
HCC1954 cells = experiment: HCC1954 cell proliferation assay (CellTiter 96 AQueous); format: cell-based; conditions: Homo sapiens, 72 hours
HMVECs = conditions: human
[7] = cytotoxicity on HMVECs, Alamar blue staining; conditions: human, human microvascular endothelial cells (HMVECs)
[8] = tested on: murine MS1 endothelial cells; experiment: scratch assay, VEGF-stimulated endothelial cell migration

Sequence of ErbB2 (Her2) (P04626 23-1255): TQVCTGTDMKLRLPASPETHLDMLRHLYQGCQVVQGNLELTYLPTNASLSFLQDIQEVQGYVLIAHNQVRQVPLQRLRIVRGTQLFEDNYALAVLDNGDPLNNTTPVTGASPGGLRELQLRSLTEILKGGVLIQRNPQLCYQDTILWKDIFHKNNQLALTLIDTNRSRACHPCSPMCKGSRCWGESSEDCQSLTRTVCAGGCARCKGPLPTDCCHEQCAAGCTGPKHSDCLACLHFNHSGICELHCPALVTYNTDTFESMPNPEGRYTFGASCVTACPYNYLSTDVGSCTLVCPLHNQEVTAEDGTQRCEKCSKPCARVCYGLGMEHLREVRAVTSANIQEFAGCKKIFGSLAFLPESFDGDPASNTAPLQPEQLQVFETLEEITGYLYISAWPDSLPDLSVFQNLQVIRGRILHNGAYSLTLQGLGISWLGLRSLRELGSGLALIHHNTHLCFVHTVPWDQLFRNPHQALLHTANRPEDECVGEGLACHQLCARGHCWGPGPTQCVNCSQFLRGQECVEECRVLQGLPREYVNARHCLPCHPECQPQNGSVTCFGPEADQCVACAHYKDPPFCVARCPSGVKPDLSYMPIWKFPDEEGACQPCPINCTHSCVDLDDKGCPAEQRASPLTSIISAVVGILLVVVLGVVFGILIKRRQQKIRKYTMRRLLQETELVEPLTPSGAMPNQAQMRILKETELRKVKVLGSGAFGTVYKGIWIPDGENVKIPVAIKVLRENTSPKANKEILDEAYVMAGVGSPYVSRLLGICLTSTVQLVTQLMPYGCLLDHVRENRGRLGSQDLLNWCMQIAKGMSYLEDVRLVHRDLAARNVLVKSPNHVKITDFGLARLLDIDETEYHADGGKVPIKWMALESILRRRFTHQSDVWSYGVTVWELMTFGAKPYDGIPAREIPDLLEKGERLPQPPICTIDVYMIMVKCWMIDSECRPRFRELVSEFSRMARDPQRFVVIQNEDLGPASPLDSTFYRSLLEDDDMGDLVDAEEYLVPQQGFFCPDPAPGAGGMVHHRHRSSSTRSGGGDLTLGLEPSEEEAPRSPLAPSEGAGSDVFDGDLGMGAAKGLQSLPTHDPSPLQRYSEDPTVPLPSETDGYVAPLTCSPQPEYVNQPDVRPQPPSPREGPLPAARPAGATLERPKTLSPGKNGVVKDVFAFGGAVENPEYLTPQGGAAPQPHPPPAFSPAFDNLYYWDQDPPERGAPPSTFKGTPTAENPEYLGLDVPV
Sequence of EGFR (P00533 25-1210): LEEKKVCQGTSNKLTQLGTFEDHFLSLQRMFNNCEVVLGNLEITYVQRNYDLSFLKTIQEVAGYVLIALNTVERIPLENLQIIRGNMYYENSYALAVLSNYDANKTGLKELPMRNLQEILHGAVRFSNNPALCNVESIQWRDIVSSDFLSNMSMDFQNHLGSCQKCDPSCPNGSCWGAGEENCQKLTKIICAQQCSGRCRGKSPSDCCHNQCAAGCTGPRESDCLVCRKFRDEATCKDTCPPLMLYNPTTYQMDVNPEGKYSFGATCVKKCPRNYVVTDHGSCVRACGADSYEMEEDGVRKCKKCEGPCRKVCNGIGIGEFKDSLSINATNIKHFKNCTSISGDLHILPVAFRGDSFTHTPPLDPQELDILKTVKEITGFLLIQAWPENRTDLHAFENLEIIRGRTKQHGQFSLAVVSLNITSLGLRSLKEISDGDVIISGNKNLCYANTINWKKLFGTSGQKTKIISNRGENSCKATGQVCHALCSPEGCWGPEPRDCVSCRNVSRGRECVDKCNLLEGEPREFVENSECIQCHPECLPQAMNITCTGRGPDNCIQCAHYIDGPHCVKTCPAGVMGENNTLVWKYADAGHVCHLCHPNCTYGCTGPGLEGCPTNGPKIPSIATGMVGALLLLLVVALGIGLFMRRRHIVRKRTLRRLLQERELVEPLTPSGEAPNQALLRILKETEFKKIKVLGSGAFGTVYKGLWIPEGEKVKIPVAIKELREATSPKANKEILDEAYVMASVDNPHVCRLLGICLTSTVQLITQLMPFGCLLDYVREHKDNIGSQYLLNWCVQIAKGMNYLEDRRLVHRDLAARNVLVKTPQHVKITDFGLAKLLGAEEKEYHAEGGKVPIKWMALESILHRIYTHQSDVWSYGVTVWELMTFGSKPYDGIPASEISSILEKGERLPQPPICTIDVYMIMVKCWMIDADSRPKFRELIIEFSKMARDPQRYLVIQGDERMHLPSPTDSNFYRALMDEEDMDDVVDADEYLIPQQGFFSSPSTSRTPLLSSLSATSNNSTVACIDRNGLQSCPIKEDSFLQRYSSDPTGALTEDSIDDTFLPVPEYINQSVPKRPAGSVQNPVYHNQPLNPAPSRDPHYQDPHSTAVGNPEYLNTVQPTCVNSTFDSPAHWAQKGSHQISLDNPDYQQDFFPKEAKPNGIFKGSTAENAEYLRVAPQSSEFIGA
T1 sequence (P12931 whole entry): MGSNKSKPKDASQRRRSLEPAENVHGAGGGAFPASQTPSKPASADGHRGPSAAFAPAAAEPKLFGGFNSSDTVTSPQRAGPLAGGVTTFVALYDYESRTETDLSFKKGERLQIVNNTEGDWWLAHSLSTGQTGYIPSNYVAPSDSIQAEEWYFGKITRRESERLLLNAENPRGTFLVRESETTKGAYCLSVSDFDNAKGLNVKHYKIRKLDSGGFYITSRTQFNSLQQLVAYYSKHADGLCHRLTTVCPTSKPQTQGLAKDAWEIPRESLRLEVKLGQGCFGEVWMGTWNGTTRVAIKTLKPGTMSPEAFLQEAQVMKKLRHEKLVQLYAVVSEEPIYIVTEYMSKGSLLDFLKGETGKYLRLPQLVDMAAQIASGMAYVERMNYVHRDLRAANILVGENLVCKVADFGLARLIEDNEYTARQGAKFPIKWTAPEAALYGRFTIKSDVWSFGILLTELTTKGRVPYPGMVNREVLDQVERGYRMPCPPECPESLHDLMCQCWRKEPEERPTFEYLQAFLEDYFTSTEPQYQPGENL
T2 sequence (P35918 20-1345): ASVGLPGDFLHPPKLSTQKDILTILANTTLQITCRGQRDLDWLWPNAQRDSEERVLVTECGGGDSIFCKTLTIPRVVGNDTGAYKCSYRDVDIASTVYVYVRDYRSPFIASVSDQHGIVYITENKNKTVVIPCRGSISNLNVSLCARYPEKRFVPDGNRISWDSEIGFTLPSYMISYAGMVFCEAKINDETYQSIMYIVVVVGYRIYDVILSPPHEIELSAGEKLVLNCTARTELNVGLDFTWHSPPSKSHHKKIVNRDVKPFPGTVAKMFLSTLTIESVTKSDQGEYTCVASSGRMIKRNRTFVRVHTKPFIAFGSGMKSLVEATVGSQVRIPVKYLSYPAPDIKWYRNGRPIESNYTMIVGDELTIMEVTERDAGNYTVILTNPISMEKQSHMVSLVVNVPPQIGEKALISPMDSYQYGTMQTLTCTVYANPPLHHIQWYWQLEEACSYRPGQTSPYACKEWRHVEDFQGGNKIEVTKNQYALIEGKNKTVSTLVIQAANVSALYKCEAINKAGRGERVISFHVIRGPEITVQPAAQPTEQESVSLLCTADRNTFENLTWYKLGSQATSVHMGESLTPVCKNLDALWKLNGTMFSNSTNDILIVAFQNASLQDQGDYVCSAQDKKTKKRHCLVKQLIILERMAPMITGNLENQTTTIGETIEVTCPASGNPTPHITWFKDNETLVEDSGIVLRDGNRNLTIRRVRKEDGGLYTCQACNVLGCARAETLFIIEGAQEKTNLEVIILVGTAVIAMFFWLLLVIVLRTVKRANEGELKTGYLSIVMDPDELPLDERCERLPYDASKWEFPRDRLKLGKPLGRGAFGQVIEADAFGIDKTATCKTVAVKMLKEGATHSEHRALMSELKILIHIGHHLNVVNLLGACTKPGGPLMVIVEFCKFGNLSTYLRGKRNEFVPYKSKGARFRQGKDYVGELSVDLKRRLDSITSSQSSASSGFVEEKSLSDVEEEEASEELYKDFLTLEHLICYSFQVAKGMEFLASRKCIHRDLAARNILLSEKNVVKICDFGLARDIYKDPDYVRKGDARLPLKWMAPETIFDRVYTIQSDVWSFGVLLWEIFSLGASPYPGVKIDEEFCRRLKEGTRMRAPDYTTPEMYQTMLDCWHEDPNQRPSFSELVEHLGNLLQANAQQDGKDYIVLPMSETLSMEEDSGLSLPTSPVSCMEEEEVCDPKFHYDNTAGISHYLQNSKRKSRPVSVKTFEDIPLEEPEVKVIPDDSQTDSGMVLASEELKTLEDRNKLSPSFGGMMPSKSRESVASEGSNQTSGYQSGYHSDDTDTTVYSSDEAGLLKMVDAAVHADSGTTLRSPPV

With `CS(=O)(=O)CCNCc1ccc(-c2ccc3ncnc(Nc4ccc(OCc5cccc(F)c5)c(Cl)c4)c3c2)o1` [lapatinib] the “able to inhibit SRC activity (SRC phosphorylation)” value (Src [1]) was “not”.

In the case of `COc1cc2c(Nc3ccc(Cl)c(Cl)c3F)ncnc2cc1OCC1C[C@@H]2CN(C)C[C@@H]2C1` (stereo partly drawn) [EXEL-7647, N-(3,4-dichloro-2-fluorophenyl)-7-({[(3aR,6aS)-2-methyloctahydrocyclopenta[c]pyrrol-5-yl]methyl}oxy)-6-(methyloxy)quinazolin-4-amine], the IC50 (Src [2]) is reported as 10.3 nM, the IC50 [3] is reported as roughly 1000 nM and the “calculated ED50 of inhibition of tumor growth” value (BT474 tumor xenografts) is reported as 30 mg EXEL-7647 per kg of body weight. The “reduction of phospho-ErbB2” value (ErbB2 (Her2); 100 mg/kg oral on three consecutive days, vs vehicle) was “approximately 70%”, the IC50 (ErbB2 (Her2); BT474 xenografts, correlated with plasma concentration, read-out: IC50 of inhibition of phospho-ErbB2 accumulation in tumors (plasma concentration)) was 3580 nM and the “reduction of phospho-ErbB2” value (ErbB2 (Her2); plasma concentration of about 5.37 μM) was “approximately 69%”. The “reduction of EGF-induced EGFR-phosphorylation” value (EGFR; 100 mg/kg oral, vs positive control) was “about 90%”, the IC50 (EGFR; read-out: IC50 plasma concentration for inhibition of EGFR phosphorylation in tumors) was 720 nM and the IC50 (KDR) was roughly 1230 nM. For the same molecule, the “reduction of phospho-EphB4” value (EphB4; 100 mg/kg oral on three consecutive days) was “approximately 70%”, the IC50 (EphB4; HCT116/EphB4 xenografts, read-out: plasma concentration predicted for 50% inhibition of EphB4-phosphorylation) was roughly 2400 nM and the “reduction of EphB4 phosphorylation in tumors” value (EphB4; plasma concentration of about 3 μM) was “approximately 70%”. The IC50 [4] was roughly 220 nM, the “CD31 Analysis % Reduction” value ([5]; 10 mg/kg oral) was 30.23% and the “Ki67 Expression % Reduction” value ([5]; 10 mg/kg oral) was 39.6%. For the same molecule, the Necrosis fold increase ([5]; 10 mg/kg oral) was 1.6 fold, the “CD31 Analysis MVC (mean vessel count)” value ([5]; 10 mg/kg oral) was 12.93 (2.3) and the “Ki67 Expression % of Cells” value ([5]; 10 mg/kg oral) was 29.8 (13.3) %. For the same molecule, the Necrosis % increase ([5]; 10 mg/kg oral) was 25.0 (14.2) %, the “CD31 Analysis % Reduction” value ([5]; 30 mg/kg oral) was 55.83% and the “Ki67 Expression % Reduction” value ([5]; 30 mg/kg oral) was 42.6%. For the same molecule, the Necrosis fold increase ([5]; 30 mg/kg oral) was 2.0 fold, the “CD31 Analysis MVC (mean vessel count)” value ([5]; 30 mg/kg oral) was 8.18 (1.4) and the “Ki67 Expression % of Cells” value ([5]; 30 mg/kg oral) was 28.3 (10.4) %. The Necrosis % increase ([5]; 30 mg/kg oral) was 30.6 (11.3) %, the “CD31 Analysis % Reduction” value ([5]; 100 mg/kg oral) was 91.23% and the “Ki67 Expression % Reduction” value ([5]; 100 mg/kg oral) was 49.6%. For the same molecule, the Necrosis fold increase ([5]; 100 mg/kg oral) was 4.5 fold, the “CD31 Analysis MVC (mean vessel count)” value ([5]; 100 mg/kg oral) was 1.625 (1) and the “Ki67 Expression % of Cells” value ([5]; 100 mg/kg oral) was 24.87 (4.9) %. The Necrosis % increase ([5]; 100 mg/kg oral) was 71.1 (8.1) %, the “tumor weight at end of study” value ([5]; 100 mg/kg oral, tumor weight at start 100.6±8.7 mg) was 112 ± 16.2 mg and the final tumor weight ([6]; 100 mg/kg oral, up to twenty-eight days, starting tumor weight 94±9 mg) was 117 ± 33 mg. The “calculated ED50 of inhibition of tumor growth” value ([6]; MDA-MB-231 xenografts, oral, up to twenty-eight consecutive days) was 22.9 mg of XL647 per kg body weight, the inhibition at 0.2 µM (JIMT-1 cells; EXEL-7647 0.2 μM alone) was 15.7% and the inhibition at 0.5 µM (JIMT-1 cells; EXEL-7647 0.5 μM alone) was 20.3%. For the same molecule, the inhibition at 1 µM (JIMT-1 cells; EXEL-7647 1.0 μM alone) was 22.7%, the inhibition at 2 µM (JIMT-1 cells; EXEL-7647 2.0 μM alone) was 28.8% and the inhibition at 5 µM (JIMT-1 cells; EXEL-7647 5.0 μM alone) was 81.7%. For the same molecule, the inhibition at 0.2 µM (HCC1954 cells; EXEL-7647 0.2 μM alone) was 22.5%, the inhibition at 0.5 µM (HCC1954 cells; EXEL-7647 0.5 μM alone) was 32.6% and the inhibition at 1 µM (HCC1954 cells; EXEL-7647 1.0 μM alone) was 38.1%. For the same molecule, the inhibition at 2 µM (HCC1954 cells; EXEL-7647 2.0 μM alone) was 43.6%, the inhibition at 5 µM (HCC1954 cells; EXEL-7647 5.0 μM alone) was 80.4% and the “cytotoxicity IC50 relative to IC50 of tubule formation inhibition” value (HMVECs) was “approximately 5 fold”. For the same molecule, the IC50 [7] was roughly 1300 nM, the “cytotoxicity in scratch assay” value ([8]; concentrations below 1.1 μM) was “No evidence for cytotoxicity” and the IC50 ([8]; read-out: IC50 of inhibition of cellular migration into the scratch, VEGF-stimulated MS1 cells, 24 hrs, six-point dose response) was roughly 120 nM.

From patent US20150010545A1 (KADMON CORPORATION, LLC, priority 2011, published 2015)
